Test results published in PMC11938014, “Development and Application of Small Molecule–Peptide Conjugates as Cathepsin K-Specific Covalent Irreversible Inhibitors in Human Osteoclast and Lung Cancer” (JACS Au, 2025).

Columns and labels:
[1] = target: T1, endogenous cathepsin K in the nucleus of human osteoclast (Homo sapiens, UniProt P43235); experiment: Fluorescence microscopy of nuclear CTSK inhibition (GD32 probe); assay type: cell-based; conditions: 3 μM, 2 h, then GD32 8 h
T1 construct: endogenous in cells; host or cells: primary human osteoclasts differentiated from blood monocytes with M-CSF and RANKL
T1 sequence (P43235 115-329): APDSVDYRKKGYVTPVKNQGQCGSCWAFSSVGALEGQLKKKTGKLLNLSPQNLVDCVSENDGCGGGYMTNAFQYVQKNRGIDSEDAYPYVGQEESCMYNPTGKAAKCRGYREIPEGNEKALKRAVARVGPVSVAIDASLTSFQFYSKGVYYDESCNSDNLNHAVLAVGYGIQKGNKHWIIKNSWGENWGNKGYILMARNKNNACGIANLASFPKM
Text: We have generated inhibitors that block nuclear CTSK activity for the first time. […] CTSK activity labeled by a specific fluorescence ABP, GD32, was detected in the nucleus and nucleoli of osteoclasts, as reported by Dey et al.[19] The CTSK nuclear signal was completely eliminated in the presence of the inhibitors (Figure 9). These inhibitors can facilitate studying CTSK nuclear activity.
Figure 9 Detection of inhibition of endogenous cathepsin K in the nucleus of human osteoclast by fluorescence microscopy. (a) Osteoclast cells were treated with GD20 or GD38 inhibitors [3 μM] or DMSO vehicle in culture medium for 2 h, followed by incubation with GD32 for 8 h, as shown in Figure 8a. Cells were then fixed and stained with DAPI (nucleus), and Z stack images were captured by confocal microscopy. The white arrows indicate the nucleus. […] Red fluorescence is CTSK activity labeled by the ABP (GD32) and blue fluorescence (DAPI). (b) Microscopy image analysis software Imaris 10.0.1 was used to produce a three-dimensional (3D) surface rendering image of a cell nucleus (transparent blue) and CTSK inside it (opaque red) on top of the original image (blue, DAPI; red, GD32). The thresholds for the surfaces were chosen to emphasize CTSK inside the nucleus. One nucleus for each treatment was chosen from pictures in (a). […]

human osteoclasts = experiment: TRAP staining, osteoclast number on bone slices; assay type: cell-based; conditions: inhibitor 1 or 5 μM
Description: Figure 6 CTSK inhibition in human osteoclasts. (a) Scheme of the process of maturation of osteoclasts (OCs) derived from human monocytes in the presence of RANKL and M-CSF. (b) Representative pictures of bone resorption after incubation with human OCs treated with vehicle or inhibitors for 10–14 days. Bone resorption was observed by a toluidine blue stain. Increased staining indicates a higher number of resorption pits and greater bone resorption. (c) Quantitative analysis of pit formation in bone slices after incubation with OC treated with GD20 or ODN (1, 5 μM) relative to vehicle treated slices. […] (e) Quantification of osteoclasts number on bone slices after inhibitor treatment, detected by TRAP staining. […] The activity of CTSK in the cells was detected by 2 h labeling with a pan-cathepsin activity-based probe, GB123, followed by a fluorescence scan of the SDS-PAGE detecting CTSK attached to the probe; the red arrow points to the bands of CTSK (above 25 kDa). […]
Blood was taken in an aseptic nontouch technique from consented human volunteers that were bled from the median cubital vein using a 21G needle, by the Declaration of Helsinki. […] The whole bone slice was analyzed by generating a panoramic view of the slice using stitching of images taken with an 20× magnification. […] And again, bone slice slices were imaged as was described before and counted using ImageJ software. […]

Row | Compound | nuclear CTSK activity labeled by GD32 [1] | osteoclast numbers on bone slices (TRAP) (human osteoclasts)
1 | CC(C)C[C@H](N[C@@H](c1ccc(-c2ccc(S(C)(=O)=O)cc2)cc1)C(F)(F)F)C(=O)NCC(=O)COC(=O)[C@@H]1CCCN1C(=O)[C@H](CCC(N)=O)NC(=O)OCC1c2ccccc2-c2ccccc21 [GD38] | block CTSK activity in the nucleolus | –
2 | CC(C)(F)C[C@H](N[C@@H](c1ccc(-c2ccc(S(C)(=O)=O)cc2)cc1)C(F)(F)F)C(=O)NC1(C#N)CC1 [ODN, odanacatib, reference compound] | – | increase
3 | CC(C)C[C@H](N[C@@H](c1ccc(-c2ccc(S(C)(=O)=O)cc2)cc1)C(F)(F)F)C(=O)NCC(=O)COC(=O)[C@@H]1CCCN1C(=O)[C@H](CC(C)C)NC(=O)OCC1c2ccccc2-c2ccccc21 [GD20] | block CTSK activity in the nucleolus | no significant alterations
